Experimental data as given in US20160102317A1, “PLANTS HAVING INCREASED TOLERANCE TO HERBICIDES” (BASF SE, priority 2013, published 2016).

What was measured:
Assay type in all cases: biochemical
[1] = molecular target: T1, Arabidopsis HPPD (SEQ ID NO:53), wild-type (Arabidopsis thaliana, UniProt P93836); assay: HPPD activity assay (HGA by HPLC), wild-type enzyme characterization
T1 construct: His6 (N); made in house; host or cells: E. coli BL21 (DE3)
T1 sequence (P93836 1-445): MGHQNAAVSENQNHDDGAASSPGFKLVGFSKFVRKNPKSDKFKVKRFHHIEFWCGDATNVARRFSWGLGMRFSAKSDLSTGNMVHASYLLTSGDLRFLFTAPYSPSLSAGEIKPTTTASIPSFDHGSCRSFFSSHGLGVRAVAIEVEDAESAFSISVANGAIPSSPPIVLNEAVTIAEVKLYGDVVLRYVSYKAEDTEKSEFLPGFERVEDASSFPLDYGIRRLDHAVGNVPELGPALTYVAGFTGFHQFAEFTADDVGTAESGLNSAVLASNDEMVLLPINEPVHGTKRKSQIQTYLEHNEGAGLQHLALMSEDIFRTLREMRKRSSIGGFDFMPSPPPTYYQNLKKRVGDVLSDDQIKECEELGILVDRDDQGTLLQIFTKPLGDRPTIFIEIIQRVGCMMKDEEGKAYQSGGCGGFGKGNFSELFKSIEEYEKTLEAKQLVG
Description: (§1) HPPD produces homogentisic acid and CO2 from 4-hydroxyphenylpyruvate (4-HPP) and 02. The activity assay for HPPD is based on the analysis of homogentisic acid by reversed phase HPLC. The assay mixture can contain 150 mM potassium phosphate buffer pH 7.0, 50 mM L-ascorbic acid, 100 μM Catalase (Sigma-Aldrich), 1 μM FeSO4 and 0.2 units of purified HPPD enzyme in a total volume of 505 μl. 1 unit is defined as the amount of enzyme that is required to produce 1 nmol of HGA per minute at 20° C.
(§2) After a preincubation of 30 min the reaction is started by adding 4-HPP to a final concentration of 0.05 mM. The reaction is allowed to proceed for 45 min at room temperature. The reaction is stopped by the addition of 50 μl of 4.5 M phosphoric acid. The sample is filtered using a […] pore size PVDF filtration device.
(§3) 5 μl of the cleared sample is analyzed on an UPLC HSS T3 column (particle size 1.8 μm, dimensions 2.1×50 mm; Waters) by isocratic elution using 90% 20 mM NaH2PO4 pH 2.2, 10% methanol (v/v).
(§4) HGA is detected electrochemically at 750 mV (mode: DC; polarity: positive) and quantified by integrating peak areas (Empower software; Waters).
(§5) Inhibitors are dissolved in DMSO (dimethylsulfoxide) to a concentration of 0.5 mM. From this stock solution serial five-fold dilutions are prepared in DMSO, which are used in the assay. The respective inhibitor solution accounts for 1% of the assay volume. […] Activities are normalized by setting the uninhibited enzyme activity to 100%. IC50 values are calculated using non-linear regression.
Using methods which are described in the above examples or well known in the art, purified, recombinant wild-type HPPD enzymes are characterized with respect to their kinetic properties and sensitivity towards HPPD inhibiting herbicides. Apparent michaelis constants (Km) and maximal reaction velocities (Vmax) are calculated by non-linear regression with the software GraphPad Prism 5 (GraphPad Software, La Jolla, USA) using a substrate inhibition model. […] Weighted means (by standard error) of Km and IC50 values are calculated from at least three independent experiments.
(§6) Field performance of the HPPD enzyme, which is used as a herbicide tolerance trait, may depend not only on its lack of sensitivity towards HPPD inhibiting herbicides but also on its activity. To assess the potential performance of a herbicide tolerance trait a tolerance index (TI) is calculated using the following formula: […]
(§7) Easy comparison and ranking of each trait is enabled by normalizing tolerance indexes on Arabidopsis wild-type HPPD.

[2] = molecular target: T2, Arabidopsis HPPD (SEQ ID: 53) M335H, P336A, E363Q (Arabidopsis thaliana, UniProt P93836, E363Q/M335H/P336A); assay: HPPD activity assay, in vitro characterization of HPPD mutants; conditions: Table 15, Arabidopsis HPPD variant M335H, wild-type = 1
T2 construct: PCR-based site directed mutagenesis of pEXP5-NT/TOPO®-AtHPPD is done; His6 (N); made in house; host or cells: E. coli BL21 (DE3)
T2 sequence (P93836 whole entry M335H/P336A/E363Q): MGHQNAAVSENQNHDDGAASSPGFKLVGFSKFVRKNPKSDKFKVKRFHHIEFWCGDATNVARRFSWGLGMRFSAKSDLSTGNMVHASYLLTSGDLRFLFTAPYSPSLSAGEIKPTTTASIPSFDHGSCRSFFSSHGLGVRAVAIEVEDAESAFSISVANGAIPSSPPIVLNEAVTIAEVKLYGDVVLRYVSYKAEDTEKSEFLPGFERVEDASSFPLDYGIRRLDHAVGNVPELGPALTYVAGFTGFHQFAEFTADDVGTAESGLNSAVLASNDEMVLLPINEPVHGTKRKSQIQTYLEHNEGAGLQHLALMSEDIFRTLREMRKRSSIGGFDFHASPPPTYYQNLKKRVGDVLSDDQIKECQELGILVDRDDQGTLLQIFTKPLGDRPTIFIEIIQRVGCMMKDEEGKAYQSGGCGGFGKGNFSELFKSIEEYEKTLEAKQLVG
Description: as §1, §2, §3, §4, §5
(§8) Purified, mutant HPPD enzymes are obtained by the methods described above. Dose response and kinetic measurements are carried out using the described HPPD activity assay. Apparent michaelis constants (Km) and maximal reaction velocities (Vmax) are calculated by non-linear regression with the software GraphPad Prism 5 (Graph Pad Software, La Jolla, USA) using a substrate inhibition model. […] Weighted means (by standard error) of Km and IC50 values are calculated from at least three independent experiments.
as §6, with “of the optimized HPPD enzyme,” for “of the HPPD enzyme,”, “herbicide tolerance trait may depend” for “herbicide tolerance trait, may depend”
as §7

[3] = molecular target: T3, Hordeum HPPD (SEQ ID: 2) L353M, P321R, V212I (Hordeum vulgare, UniProt O48604, L353M/P321R/V212I); assay: as above; conditions: Table 16, Hordeum wild-type = 1
T3 construct: His (N); made in house; host or cells: E. coli BL21 (DE3)
T3 sequence (O48604 whole entry R146V/R147D/R148G/A164G/V212I/P321R/L353M): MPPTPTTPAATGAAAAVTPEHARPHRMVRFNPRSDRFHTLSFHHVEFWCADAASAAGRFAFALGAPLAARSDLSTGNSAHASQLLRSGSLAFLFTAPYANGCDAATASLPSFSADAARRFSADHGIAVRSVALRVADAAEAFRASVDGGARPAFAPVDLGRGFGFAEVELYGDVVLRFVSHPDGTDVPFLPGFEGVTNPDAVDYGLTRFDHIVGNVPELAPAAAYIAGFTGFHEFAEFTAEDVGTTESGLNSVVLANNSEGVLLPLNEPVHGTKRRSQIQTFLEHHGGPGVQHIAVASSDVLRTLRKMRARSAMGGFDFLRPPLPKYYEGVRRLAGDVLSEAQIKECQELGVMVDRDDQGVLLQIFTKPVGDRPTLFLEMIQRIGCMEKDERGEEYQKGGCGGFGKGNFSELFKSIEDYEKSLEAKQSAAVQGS
Description: as §1, §2, §3, §4, §5, §8
as §6, with “of the optimized HPPD enzyme,” for “of the HPPD enzyme,”, “herbicide tolerance trait may depend” for “herbicide tolerance trait, may depend”
as §7

[4] = molecular target: T4, Hordeum HPPD (SEQ ID: 2) F377L (Hordeum vulgare, UniProt O48604, A164G/F377L/R146V/R147D/R148G); assay: as above; conditions: Table 16, Hordeum wild-type = 1
T4 construct: His (N); made in house; host or cells: E. coli BL21 (DE3)
T4 sequence (O48604 whole entry R146V/R147D/R148G/A164G/F377L): as the sequence (O48604 whole entry R146V/R147D/R148G/A164G/V212I/P321R/L353M) above, with I212V, R321P, M353L, F377L counted along it
Description: as §1
After a preincubation of 30 min the reaction is started by adding 4-HPP to a final concentration of 0.05 mM. The reaction is allowed to proceed for 45 min at room temperature. The reaction is stopped by the addition of 50 μl of 4.5 M phosphoric acid. […]
as §3, §4
Inhibitors are dissolved in DMSO (dimethylsulfoxide) to a concentration of 0.5 mM. […] IC50 values are calculated using non-linear regression.
Purified, mutant HPPD enzymes are obtained by the methods described above. […] Weighted means (by standard error) of Km and IC50 values are calculated from at least three independent experiments. […]

| SMILES | Ki [1] [µM] | TI Inhibitor 1 (normalized tolerance index) ([1]; Table 12, Arabidopsis HPPD, normalized to reference SEQ ID NO:53) | TI Inhibitor 1 (normalized tolerance index) ([1]; Table 15, Arabidopsis HPPD variant Wild-type) | TI Inhibitor 1 (normalized tolerance index) [2] | TI Inhibitor 1 (normalized tolerance index) [3] | TI Inhibitor 2 (normalized tolerance index) [4] |
| --- | --- | --- | --- | --- | --- | --- |
| COc1no[nH]/c1=N/C(=O)c1ccc2c(c1Cl)S(=O)(=O)CCC2(C)C [Inhibitor 1, (NE)-8-chloro-N-(4-methoxy-1,2,5-oxadiazol-3-ylidene)-4,4-dimethyl-1,1-dioxo-2,3-dihydrothiochromene-7-carboxamide] | 0.019 | 1 | 1 | 0.3 | 2.9 | – |
| Cc1c(C(=O)Nc2nnnn2C)ccc2c1C(=O)C(C)(C)CS2(=O)=O [Inhibitor 2, 3,3,5-trimethyl-N-(1-methyltetrazol-5-yl)-1,1,4-trioxo-2H-thiochromene-6-carboxamide] | – | – | – | – | – | 4.6 |
